The values that follow are results of earlier work, collected in patent US8034838B2, “Composition and method for the treatment of neurological disorders” (priority 2008, dated 2011).

Molecules are shown by their SMILES.

The target of one data set is β-secretase (Homo sapiens, UniProt P56817).
For data set [1] the following is noted: after administration.

β-secretase, sequence (P56817 46-501): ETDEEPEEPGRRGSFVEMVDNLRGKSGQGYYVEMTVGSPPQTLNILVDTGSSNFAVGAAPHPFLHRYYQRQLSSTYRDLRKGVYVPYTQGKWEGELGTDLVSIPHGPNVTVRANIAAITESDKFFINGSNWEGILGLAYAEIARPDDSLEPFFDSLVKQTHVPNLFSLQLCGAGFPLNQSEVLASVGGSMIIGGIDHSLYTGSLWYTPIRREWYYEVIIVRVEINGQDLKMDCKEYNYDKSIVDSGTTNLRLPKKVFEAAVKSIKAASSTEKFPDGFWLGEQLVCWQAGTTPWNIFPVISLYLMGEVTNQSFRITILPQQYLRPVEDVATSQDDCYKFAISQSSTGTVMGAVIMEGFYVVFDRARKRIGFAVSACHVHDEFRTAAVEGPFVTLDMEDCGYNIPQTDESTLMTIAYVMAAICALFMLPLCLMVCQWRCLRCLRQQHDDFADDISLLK

For `O=c1c(O)c(-c2cc(O)c(O)c(O)c2)oc2cc(O)cc(O)c12` [myricetin, Myricetin], the “regulation of γ-secretase” value in the data set with γ-secretase is listed as “down-regulates”. Also, at β-secretase, the “regulation of β-secretase” value is “down-regulates”. Moreover, the “time to cross the blood brain barrier” value in data set [1] was no more than 30 min. Besides, the “regulation of α-secretase” value in the data set with α-secretase is given as “up-regulates”.
